Data as given in patent US5616327A (SRI International, priority 1994, dated 1997).
Where no end group is shown, it is not given here.

Molecular target: RNA polymerase-RNA complex ("cores" with transcriptase activity) (Influenza A virus, UniProt P03428+P03431+P03433)
Assay: biochemical
Parameters: species or system Influenza virus A/PR/8/34
Conditions: for inhibition at 0.05 µM / inhibition at 0.5 µM / inhibition at 5 µM / inhibition at 50 µM: read-out: % Inhibition (inhibition of polymerase by peptides)

Row | Molecule | inhibition at 0.05 µM [%] | inhibition at 0.5 µM [%] | inhibition at 5 µM [%] | inhibition at 50 µM [%] | 50% inhibition (concentration, in words) | inhibition at 1 µM (1 μM, read-out: % Inhibition (inhibition of polymerase by peptide 6)) [%] | inhibition at 10 µM (10 μM, read-out: % Inhibition (inhibition of polymerase by peptide 6)) [%] | inhibition at 100 µM (100 μM, read-out: % Inhibition (inhibition of polymerase by peptide 6)) [%] | inhibition at 0.001 µM (.001 μM, read-out: % Inhibition (inhibition of polymerase by peptide 6)) [%] | inhibition at 0.01 µM (.010 μM, read-out: % Inhibition (inhibition of polymerase by peptide 6)) [%] | inhibition at 0.1 µM (.100 μM, read-out: % Inhibition (inhibition of polymerase by peptide 6)) [%]
1 | CSCC[C@H](NC(=O)[C@H](CC(N)=O)NC(=O)[C@H](CC(N)=O)NC(=O)[C@@H]1CCCN1C(=O)[C@H](CC(=O)O)NC(=O)CNC(=O)[C@H](CC(N)=O)NC(=O)CNC(=O)[C@H](CC(N)=O)NC(=O)[C@H](CC(C)C)NC(=O)[C@H](C)N)C(=O)N[C@@H](CC(=O)O)C(=O)N[C@@H](CCCCN)C(=O)N[C@@H](C)C(=O)N[C@H](C(=O)N[C@@H](CCCCN)C(=O)N[C@@H](CC(C)C)C(=O)N[C@@H](Cc1ccc(O)cc1)C(=O)O)C(C)C [Peptide 2] | -37 | -10 | -20 | -13 |  |  |  |  |  |  | 
2 | CC[C@H](C)[C@H](NC(=O)[C@H](CCC(N)=O)NC(=O)[C@@H](N)CCC(=O)O)C(=O)N[C@@H](C)C(=O)N[C@@H](CC(=O)O)C(=O)N[C@@H](CO)C(=O)N[C@@H](CCC(N)=O)C(=O)N[C@@H](Cc1c[nH]cn1)C(=O)N[C@@H](CCCNC(=N)N)C(=O)N[C@@H](CO)C(=O)N[C@@H](Cc1c[nH]cn1)C(=O)N[C@@H](CCCNC(=N)N)C(=O)N[C@@H](CCC(N)=O)C(=O)N[C@@H](CCSC)C(=O)N[C@H](C(=O)O)C(C)C [Peptide 4] | 38 | 22 | 23 | 32 |  |  |  |  |  |  | 
3 | CC(C)C[C@H](NC(=O)CNC(=O)[C@H](C)NC(=O)[C@H](CO)NC(=O)[C@H](CO)NC(=O)[C@H](CO)NC(=O)[C@@H]1CCCN1C(=O)[C@H](Cc1c[nH]cn1)NC(=O)[C@@H](NC(=O)CN)[C@@H](C)O)C(=O)N[C@@H](CCCCN)C(=O)N[C@@H](CC(N)=O)C(=O)N[C@@H](CC(=O)O)C(=O)N[C@@H](CC(C)C)C(=O)N[C@@H](CC(C)C)C(=O)N[C@@H](CCC(=O)O)C(=O)N[C@@H](CC(N)=O)C(=O)O [Peptide 5] | 16 | 14 | 1 | -30 |  |  |  |  |  |  | 
4 | CC[C@H](C)[C@H](NC(=O)[C@H](CCC(N)=O)NC(=O)[C@H](CCC(=O)O)NC(=O)[C@H](CS)NC(=O)[C@@H](NC(=O)[C@H](C)NC(=O)[C@@H](N)CS)[C@@H](C)O)C(=O)N[C@@H](C)C(=O)N[C@@H](CC(=O)O)C(=O)N[C@@H](CO)C(=O)N[C@@H](CCC(N)=O)C(=O)N[C@@H](Cc1c[nH]cn1)C(=O)N[C@@H](CCCNC(=N)N)C(=O)N[C@@H](CO)C(=O)N[C@@H](Cc1c[nH]cn1)C(=O)N[C@@H](CCCNC(=N)N)C(=O)N[C@@H](CCC(N)=O)C(=O)N[C@@H](CCSC)C(=O)N[C@H](C(=O)O)C(C)C [Peptide 6] |  |  |  |  | picomolar range | > 100 | 98 | 81 | 77 | 82 | 99
5 | KREITFHGAKEISLS [Peptide 3] | 9 | 8 | -9 | -30 |  |  |  |  |  |  | 
6 | LTVPSERGLQRRR [Peptide 1] | 3 | 2 | 9 | 35 |  |  |  |  |  |  | 
